“And” between values parts separate entries of the source, which are not always exact repeats. Equal entries are not always repeated.
Key:
SfurOBP1 = SfurOBP1 (Sogatella furcifera, UniProt V5T8N5); assay: biochemical; format: binding; conditions: for Fluorescence competitive binding assay, fluorescence intensity: OBP1, three replicate columns
In short: (§1)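 K1-NPN came from titrating 2.0 µM protein (50 mM Tris-HCl, pH 7.4) with 1-NPN. Odorants at 2-20 µM then competed against 2.0 µM protein plus 2.0 µM 1-NPN for 2 min, with excitation at 337 nm and emission recorded over 390-490 nm. IC50 values were converted to Ki via Ki = IC50/(1 + [1-NPN]/K1-NPN).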

SfurOBP3 = SfurOBP3 (Sogatella furcifera, UniProt V5T818); assay: biochemical; format: binding; conditions: for Fluorescence competitive binding assay, fluorescence intensity: OBP3, three replicate columns
Chain of SfurOBP3 (V5T818 entry or part of it): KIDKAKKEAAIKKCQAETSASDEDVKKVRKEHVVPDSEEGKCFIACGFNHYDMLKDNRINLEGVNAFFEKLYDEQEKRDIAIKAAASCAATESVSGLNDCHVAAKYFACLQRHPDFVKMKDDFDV
In short: as §1

SfurOBP11 = SfurOBP11 (Sogatella furcifera, UniProt V5T6E3); assay: biochemical; format: binding
Chain of SfurOBP11 (V5T6E3 entry or part of it): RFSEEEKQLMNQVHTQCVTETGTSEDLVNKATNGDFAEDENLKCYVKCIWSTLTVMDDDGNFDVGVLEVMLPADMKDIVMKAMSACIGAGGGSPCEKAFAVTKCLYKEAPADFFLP
In short: as §1

SfurOBP2 = SfurOBP2 (Sogatella furcifera, UniProt V5T759); assay: biochemical; format: binding
Chain of SfurOBP2 (V5T759 entry or part of it): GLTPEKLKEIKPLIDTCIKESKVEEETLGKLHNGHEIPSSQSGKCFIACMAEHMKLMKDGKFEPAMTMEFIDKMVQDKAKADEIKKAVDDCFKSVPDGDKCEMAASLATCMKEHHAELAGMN
In short: as §1

S. furcifera adults = assay: Y-tube olfactometer behavioral trials; format: in vivo, Sogatella furcifera; conditions: odorant 50 µL/L vs hexane; adults
In short: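 Single S. furcifera adults (2 days post-emergence, starved 0.5 h) chose between odorant (100 µL of 50 µL/L on filter paper) and hexane control in a glass Y-tube, charcoal-filtered humidified air 300 mL/min per arm, 25 ± 1 °C, 50% RH. Choice scored if insect passed half an arm and stayed >1 min within 10 min; 45 insects per compound, chi-squared test.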

Chain of SfurOBP1 (V5T8N5 entry or part of it): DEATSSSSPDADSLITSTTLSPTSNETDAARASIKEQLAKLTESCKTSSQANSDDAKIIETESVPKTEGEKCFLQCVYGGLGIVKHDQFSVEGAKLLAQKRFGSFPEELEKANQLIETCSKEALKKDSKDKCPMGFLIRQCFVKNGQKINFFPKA

## 2-heptanonol
SfurOBP1; ligand concentration 2 (μM)
  Fluorescence competitive binding assay, fluorescence intensity: 5887 and 5646 and 5767
SfurOBP1; ligand concentration 4 (μM)
  Fluorescence competitive binding assay, fluorescence intensity: 7288 and 7577 and 6996
SfurOBP1; ligand concentration 6 (μM)
  Fluorescence competitive binding assay, fluorescence intensity: 5995 and 5950 and 6027
SfurOBP1; ligand concentration 8 (μM)
  Fluorescence competitive binding assay, fluorescence intensity: 7072 and 6140 and 5704
SfurOBP1; ligand concentration 10 (μM)
  Fluorescence competitive binding assay, fluorescence intensity: 8690 and 6215 and 5653
SfurOBP1; ligand concentration 12 (μM)
  Fluorescence competitive binding assay, fluorescence intensity: 7048 and 7677 and 6537
SfurOBP1; ligand concentration 14 (μM)
  Fluorescence competitive binding assay, fluorescence intensity: 6232 and 8602 and 7115
SfurOBP1; ligand concentration 16 (μM)
  Fluorescence competitive binding assay, fluorescence intensity: 5533 and 5298 and 5778
SfurOBP1; ligand concentration 18 (μM)
  Fluorescence competitive binding assay, fluorescence intensity: 5895 and 6061 and 6136
SfurOBP1; ligand concentration 20 (μM)
  Fluorescence competitive binding assay, fluorescence intensity: 5784 and 5580 and 5212
SfurOBP1; SfurOBP1, protein and 1-NPN both 2.0 µM, competitor 2-20 µM, read-out: IC50
  IC50: > 20 µM
SfurOBP3; ligand concentration 2
  Fluorescence competitive binding assay, fluorescence intensity: 45232 and 45869 and 44594
SfurOBP3; ligand concentration 4
  Fluorescence competitive binding assay, fluorescence intensity: 45996 and 44453 and 43020
SfurOBP3; ligand concentration 6
  Fluorescence competitive binding assay, fluorescence intensity: 47391 and 47743 and 47567
SfurOBP3; ligand concentration 8
  Fluorescence competitive binding assay, fluorescence intensity: 48801 and 50407 and 49604
SfurOBP3; ligand concentration 10
  Fluorescence competitive binding assay, fluorescence intensity: 51610 and 62768 and 47878
SfurOBP3; ligand concentration 12
  Fluorescence competitive binding assay, fluorescence intensity: 54498 and 52011 and 51877
SfurOBP3; ligand concentration 14
  Fluorescence competitive binding assay, fluorescence intensity: 42842 (2×) and 42142
SfurOBP3; ligand concentration 16
  Fluorescence competitive binding assay, fluorescence intensity: 41166 and 44357 and 42754
SfurOBP3; ligand concentration 18
  Fluorescence competitive binding assay, fluorescence intensity: 42621 and 43724 and 41536
SfurOBP3; ligand concentration 20
  Fluorescence competitive binding assay, fluorescence intensity: 45786 and 37456 and 39383
SfurOBP3; SfurOBP3, protein and 1-NPN both 2.0 µM, competitor 2-20 µM, read-out: IC50
  IC50: > 20 µM
SfurOBP11; SfurOBP11, protein and 1-NPN both 2.0 µM, competitor 2-20 µM, read-out: IC50
  IC50: > 20 µM
SfurOBP11; ligand concentration 2, replicate 1
  Fluorescence intensity, fluorescence competitive binding assay, OBP11: 32214
SfurOBP11; ligand concentration 2, replicate 2
  Fluorescence intensity, fluorescence competitive binding assay, OBP11: 33277
SfurOBP11; ligand concentration 2, replicate 3
  Fluorescence intensity, fluorescence competitive binding assay, OBP11: 35354
SfurOBP11; ligand concentration 4, replicate 1
  Fluorescence intensity, fluorescence competitive binding assay, OBP11: 33125
SfurOBP11; ligand concentration 4, replicate 2
  Fluorescence intensity, fluorescence competitive binding assay, OBP11: 35054
SfurOBP11; ligand concentration 4, replicate 3
  Fluorescence intensity, fluorescence competitive binding assay, OBP11: 33696
SfurOBP11; ligand concentration 6, replicate 1
  Fluorescence intensity, fluorescence competitive binding assay, OBP11: 31772
SfurOBP11; ligand concentration 6, replicate 2
  Fluorescence intensity, fluorescence competitive binding assay, OBP11: 31091
SfurOBP11; ligand concentration 6, replicate 3
  Fluorescence intensity, fluorescence competitive binding assay, OBP11: 33532
SfurOBP11; ligand concentration 8, replicate 1
  Fluorescence intensity, fluorescence competitive binding assay, OBP11: 28812
SfurOBP11; ligand concentration 8, replicate 2
  Fluorescence intensity, fluorescence competitive binding assay, OBP11: 31104
SfurOBP11; ligand concentration 8, replicate 3
  Fluorescence intensity, fluorescence competitive binding assay, OBP11: 31825
SfurOBP11; ligand concentration 10, replicate 1
  Fluorescence intensity, fluorescence competitive binding assay, OBP11: 28521
SfurOBP11; ligand concentration 10, replicate 2
  Fluorescence intensity, fluorescence competitive binding assay, OBP11: 30054
SfurOBP11; ligand concentration 10, replicate 3
  Fluorescence intensity, fluorescence competitive binding assay, OBP11: 29747
SfurOBP11; ligand concentration 12, replicate 1
  Fluorescence intensity, fluorescence competitive binding assay, OBP11: 26176
SfurOBP11; ligand concentration 12, replicate 2
  Fluorescence intensity, fluorescence competitive binding assay, OBP11: 26507
SfurOBP11; ligand concentration 12, replicate 3
  Fluorescence intensity, fluorescence competitive binding assay, OBP11: 26325
SfurOBP11; ligand concentration 14, replicate 1
  Fluorescence intensity, fluorescence competitive binding assay, OBP11: 24809
SfurOBP11; ligand concentration 14, replicate 2
  Fluorescence intensity, fluorescence competitive binding assay, OBP11: 27546
SfurOBP11; ligand concentration 14, replicate 3
  Fluorescence intensity, fluorescence competitive binding assay, OBP11: 28489
SfurOBP11; ligand concentration 16, replicate 1
  Fluorescence intensity, fluorescence competitive binding assay, OBP11: 22169
SfurOBP11; ligand concentration 16, replicate 2
  Fluorescence intensity, fluorescence competitive binding assay, OBP11: 21457
SfurOBP11; ligand concentration 16, replicate 3
  Fluorescence intensity, fluorescence competitive binding assay, OBP11: 24839
SfurOBP11; ligand concentration 18, replicate 1
  Fluorescence intensity, fluorescence competitive binding assay, OBP11: 29523
SfurOBP11; ligand concentration 18, replicate 2
  Fluorescence intensity, fluorescence competitive binding assay, OBP11: 28673
SfurOBP11; ligand concentration 18, replicate 3
  Fluorescence intensity, fluorescence competitive binding assay, OBP11: 27420
SfurOBP11; ligand concentration 20, replicate 1
  Fluorescence intensity, fluorescence competitive binding assay, OBP11: 25385
SfurOBP11; ligand concentration 20, replicate 2
  Fluorescence intensity, fluorescence competitive binding assay, OBP11: 25884
SfurOBP11; ligand concentration 20, replicate 3
  Fluorescence intensity, fluorescence competitive binding assay, OBP11: 25605
SfurOBP2; SfurOBP2, protein and 1-NPN both 2.0 µM, competitor 2-20 µM, read-out: IC50
  IC50: > 20 µM
SfurOBP2; ligand concentration 2 (unit not given), replicate column 1 of 3
  Fluorescence competitive binding assay, OBP2 (raw fluorescence reading): 18612
SfurOBP2; ligand concentration 2 (unit not given), replicate column 2 of 3
  Fluorescence competitive binding assay, OBP2 (raw fluorescence reading): 18747
SfurOBP2; ligand concentration 2 (unit not given), replicate column 3 of 3
  Fluorescence competitive binding assay, OBP2 (raw fluorescence reading): 19681
SfurOBP2; ligand concentration 4 (unit not given), replicate column 1 of 3
  Fluorescence competitive binding assay, OBP2 (raw fluorescence reading): 19302
SfurOBP2; ligand concentration 4 (unit not given), replicate column 2 of 3
  Fluorescence competitive binding assay, OBP2 (raw fluorescence reading): 19993
SfurOBP2; ligand concentration 4 (unit not given), replicate column 3 of 3
  Fluorescence competitive binding assay, OBP2 (raw fluorescence reading): 20683
SfurOBP2; ligand concentration 6 (unit not given), replicate column 1 of 3
  Fluorescence competitive binding assay, OBP2 (raw fluorescence reading): 18811
SfurOBP2; ligand concentration 6 (unit not given), replicate column 2 of 3
  Fluorescence competitive binding assay, OBP2 (raw fluorescence reading): 18736
SfurOBP2; ligand concentration 6 (unit not given), replicate column 3 of 3
  Fluorescence competitive binding assay, OBP2 (raw fluorescence reading): 18774
SfurOBP2; ligand concentration 8 (unit not given), replicate column 1 of 3
  Fluorescence competitive binding assay, OBP2 (raw fluorescence reading): 16468
SfurOBP2; ligand concentration 8 (unit not given), replicate column 2 of 3
  Fluorescence competitive binding assay, OBP2 (raw fluorescence reading): 16720
SfurOBP2; ligand concentration 8 (unit not given), replicate column 3 of 3
  Fluorescence competitive binding assay, OBP2 (raw fluorescence reading): 16981
SfurOBP2; ligand concentration 10 (unit not given), replicate column 1 of 3
  Fluorescence competitive binding assay, OBP2 (raw fluorescence reading): 16986
SfurOBP2; ligand concentration 10 (unit not given), replicate column 2 of 3
  Fluorescence competitive binding assay, OBP2 (raw fluorescence reading): 17111
SfurOBP2; ligand concentration 10 (unit not given), replicate column 3 of 3
  Fluorescence competitive binding assay, OBP2 (raw fluorescence reading): 16240
SfurOBP2; ligand concentration 12 (unit not given), replicate column 1 of 3
  Fluorescence competitive binding assay, OBP2 (raw fluorescence reading): 16820
SfurOBP2; ligand concentration 12 (unit not given), replicate column 2 of 3
  Fluorescence competitive binding assay, OBP2 (raw fluorescence reading): 17596
SfurOBP2; ligand concentration 12 (unit not given), replicate column 3 of 3
  Fluorescence competitive binding assay, OBP2 (raw fluorescence reading): 18083
SfurOBP2; ligand concentration 14 (unit not given), replicate column 1 of 3
  Fluorescence competitive binding assay, OBP2 (raw fluorescence reading): 17387
SfurOBP2; ligand concentration 14 (unit not given), replicate column 2 of 3
  Fluorescence competitive binding assay, OBP2 (raw fluorescence reading): 16676
SfurOBP2; ligand concentration 14 (unit not given), replicate column 3 of 3
  Fluorescence competitive binding assay, OBP2 (raw fluorescence reading): 18097
SfurOBP2; ligand concentration 16 (unit not given), replicate column 1 of 3
  Fluorescence competitive binding assay, OBP2 (raw fluorescence reading): 16472
SfurOBP2; ligand concentration 16 (unit not given), replicate column 2 of 3
  Fluorescence competitive binding assay, OBP2 (raw fluorescence reading): 16454
SfurOBP2; ligand concentration 16 (unit not given), replicate column 3 of 3
  Fluorescence competitive binding assay, OBP2 (raw fluorescence reading): 17500
SfurOBP2; ligand concentration 18 (unit not given), replicate column 1 of 3
  Fluorescence competitive binding assay, OBP2 (raw fluorescence reading): 16574
SfurOBP2; ligand concentration 18 (unit not given), replicate column 2 of 3
  Fluorescence competitive binding assay, OBP2 (raw fluorescence reading): 16302
SfurOBP2; ligand concentration 18 (unit not given), replicate column 3 of 3
  Fluorescence competitive binding assay, OBP2 (raw fluorescence reading): 16787
SfurOBP2; ligand concentration 20 (unit not given), replicate column 1 of 3
  Fluorescence competitive binding assay, OBP2 (raw fluorescence reading): 15630
SfurOBP2; ligand concentration 20 (unit not given), replicate column 2 of 3
  Fluorescence competitive binding assay, OBP2 (raw fluorescence reading): 15665
SfurOBP2; ligand concentration 20 (unit not given), replicate column 3 of 3
  Fluorescence competitive binding assay, OBP2 (raw fluorescence reading): 15648
S. furcifera adults
  number of insects choosing hexane arm: 13
  number of insects choosing volatilies arm: 16
  number of insects failed (no choice): 13

Source: publication PMC6409085, “Three odorant-binding proteins are involved in the behavioral response of Sogatella furcifera to rice plant volatiles” (PeerJ, 2019)
